In patent US20250195513A1, “DEGRADATION OF IRAK4 BY CONJUGATION OF IRAK4 INHIBITORS WITH E3 LIGASE LIGAND AND METHODS OF USE” (BeiGene, Ltd., priority 2022, published 2025) one finds Dmax and DC50 data, which are given here for 13 compounds.

The structures appear in SMILES notation. Read-outs that look alike come from different tables or passages of the source.

For orientation: Dmax means the greatest extent of degradation seen. For orientation: DC50 means the concentration at which degradation of the target reaches its halfway point.

The target in this experiment is T1, IRAK4 (Homo sapiens, UniProt Q9NWZ3).
T1 construct: endogenous in cells; host or cells: Karpas299
T1 sequence (Q9NWZ3 1-460): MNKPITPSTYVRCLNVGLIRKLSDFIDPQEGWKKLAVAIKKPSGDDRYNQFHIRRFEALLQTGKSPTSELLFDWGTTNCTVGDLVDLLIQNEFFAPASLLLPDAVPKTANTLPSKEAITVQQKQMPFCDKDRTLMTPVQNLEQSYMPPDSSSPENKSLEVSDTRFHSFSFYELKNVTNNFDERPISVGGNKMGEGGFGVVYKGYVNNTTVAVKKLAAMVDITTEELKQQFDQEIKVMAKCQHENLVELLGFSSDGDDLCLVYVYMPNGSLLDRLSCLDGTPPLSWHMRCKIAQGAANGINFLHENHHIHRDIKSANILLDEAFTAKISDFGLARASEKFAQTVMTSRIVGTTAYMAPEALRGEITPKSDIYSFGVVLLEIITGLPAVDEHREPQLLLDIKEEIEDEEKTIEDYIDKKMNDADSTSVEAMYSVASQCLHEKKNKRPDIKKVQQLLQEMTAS
Description: IRAK4 Degradation Assay (Karpas299, HTRF/TR-FRET). Type of experiment: cell-based. To be noted: Karpas-299 cells; for Dmax: maximum percentage of degradation. How it is done: IRAK4 degradation was measured using a TR-FRET-based method (Degorce, François, et al. Current chemical genomics. 2009, 3: 22). Karpas299 maintained in RPMI 1640 medium (Thermo Scientific) supplemented with 20% fetal bovine serum (FBS, Thermo Scientific), 100 units/mL penicillin and 0.1 mg/mL streptomycin (Thermo Scientific) were seeded into 96-well plates at the density of 0.2 million cells per well and then treated with a series dilution of compounds. After 24 hours or 5 hours treatment, cells were pelleted via centrifugation and 40 μL lysis buffer (Cisbio) was added to each well after removal of the supernatant. Plates were then incubated at room temperature with shaking for 30 minutes. A total of 16 μL of cell lysates from each well of a 96-well plate was transferred to a 384-well white assay plate. IRAK4 level was quantitated using the HTRF kit as described by the manufacturer manual (Cisbio). FRET signals were measured using a PHERAstar FSX reader (BMG Labtech).
After treatment, add HTRF lysis buffer to each well; seal the plate and incubate 1 hour at room temperature on a plate shaker; Once the cells are lysed, 16 μL of cell lysate are transferred to a PE 384-well HTRF detection plate; 4 μL of pre-mixed HTRF antibodies are added to each well; Cover the plate with a plate sealer, spin 1000 rpm for 1 min, Incubate overnight at room temperature; Read on BMG PheraStar with HTRF protocol (337 nm-665 nm-620 nm).
The inhibition (degradation) percentage of the compound was calculated by the following equation: […]
The IC50 (DC50) value of a compound can be obtained by fitting the following equation
Wherein, X and Y are known values, and IC50, Hillslope, Top and Bottom are the parameters obtained by fitting with software. Y is the inhibition percentage (calculated from the equation), X is the concentration of the compound; IC50 is the concentration of the compound when the […] is reached. The smaller the IC50 value is, the stronger the inhibitory ability of the compound is. Vice versa, the higher the IC50 value is, the weaker the ability the inhibitory ability of the compound is; Hillslope represents the slope of the fitted curve, generally around 1 *; Bottom represents the minimum value of the curve obtained by data fitting, which is generally 0%±20%; Top represents the maximum value of the curve obtained by data fitting, which is generally 100%±20%. The experimental data were fitted by calculating and analyzing with Dotmatics data analysis software.
A general note: In TR-FRET formats the signal depends on donor and acceptor labels being close together.

The mark [1] stands for this setting: 24 h treatment, read-out: IRAK4 in Karpas-299 (24 h) Dmax (%).
The mark [2] stands for this setting: 24 h treatment, read-out: IRAK4 in Karpas-299 (24 h) DC50.

For `CC(C)(O)c1cc2nn([C@H]3CC[C@H](N4CCN(C5CCN(c6cc(F)c([C@H]7CCC(=O)NC7=O)c(F)c6)CC5)CC4)CC3)cc2cc1NC(=O)c1cccc(C(F)(F)F)n1` [Example 99, N-(2-((1r,4r)-4-(4-(1-(4-((R)-2,6-dioxopiperidin-3-yl)-3,5-difluorophenyl)piperidin-4-yl)piperazin-1-yl)cyclohexyl)-6-(2-hydroxypropan-2-yl)-2H-indazol-5-yl)-6-(trifluoromethyl)picolinamide], under setting [1], the Dmax came to 99%. Besides, under setting [2], the DC50 came out at 0.4 nM.
The like results for `O=C1CCN(c2ccc(N3CC[C@H](C(=O)N4CCN([C@H]5CC[C@H](n6cc(NC(=O)c7coc(-c8ccnc(NCC9CC9)c8)n7)c(C(F)F)n6)CC5)CC4)C3)cc2)C(=O)N1` [Example 22, 2-(2-((cyclopropylmethyl)amino)pyridin-4-yl)-N-(3-(difluoromethyl)-1-((1S,4r)-4-(4-((S)-1-(4-(2,4-dioxotetrahydropyrimidin-1(2H)-yl)phenyl)pyrrolidine-3-carbonyl)piperazin-1-yl)cyclohexyl)-1H-pyrazol-4-yl)oxazole-4-carboxamide] were, in that order, 90% and 6.8 nM.
The like results for `CC(C)(O)c1cc2nn([C@H]3CC[C@H](N4CCN(C(=O)[C@@H]5CCN(c6cc(F)c(N7CCC(=O)NC7=O)c(F)c6)C5)CC4)CC3)cc2cc1NC(=O)c1cccc(C(F)(F)F)n1` [Example 115, N-(2-((1R,4r)-4-(4-((R)-1-(4-(2,4-dioxotetrahydropyrimidin-1(2H)-yl)-3,5-difluorophenyl)pyrrolidine-3-carbonyl)piperazin-1-yl)cyclohexyl)-6-(2-hydroxypropan-2-yl)-2H-indazol-5-yl)-6-(trifluoromethyl)picolinamide] were, in that order, 96% and 3.8 nM.
The like results for `CC(C)(O)c1cc2nn([C@H]3CC[C@H](N4CCN([C@H]5CCN(c6ccc(N7CCC(=O)NC7=O)cc6)C5)CC4)CC3)cc2cc1NC(=O)c1ccc2cc(C#N)cnn12` [Example 295, 3-cyano-N-(2-((1S,4r)-4-(4-((S)-1-(4-(2,4-dioxotetrahydropyrimidin-1(2H)-yl)phenyl)pyrrolidin-3-yl)piperazin-1-yl)cyclohexyl)-6-(2-hydroxypropan-2-yl)-2H-indazol-5-yl)pyrrolo[1,2-b]pyridazine-7-carboxamide] were, in that order, 87% and 16 nM.
As for `CC(C)(O)c1cc2nn([C@H]3CC[C@H](N4CCN(C(=O)C5CN(c6cc(F)c([C@H]7CCC(=O)NC7=O)c(F)c6)C5)CC4)CC3)cc2cc1NC(=O)c1cnn2cc(C#N)cnc12` [Example 411, 6-cyano-N-(2-((1r,4r)-4-(4-(1-(4-((R)-2,6-dioxopiperidin-3-yl)-3,5-difluorophenyl)azetidine-3-carbonyl)piperazin-1-yl)cyclohexyl)-6-(2-hydroxypropan-2-yl)-2H-indazol-5-yl)pyrazolo[1,5-a]pyrimidine-3-carboxamide], the Dmax under setting [1] amounted to 9%. For the same compound, the DC50 under setting [2] was greater than 10000 nM.
As to `O=C1CC[C@H](c2c(F)cc(N3CC[C@@H](C(=O)N4CCN([C@H]5CC[C@H](n6cc(NC(=O)c7cnn(-c8ccnc(NCC(F)(F)F)c8)n7)c(C(F)F)n6)CC5)CC4)C3)cc2F)C(=O)N1` [Example 52, N-(3-(difluoromethyl)-1-((1R,4r)-4-(4-((R)-1-(4-((R)-2,6-dioxopiperidin-3-yl)-3,5-difluorophenyl)pyrrolidine-3-carbonyl)piperazin-1-yl)cyclohexyl)-1H-pyrazol-4-yl)-2-(2-((2,2,2-trifluoroethyl)amino)pyridin-4-yl)-2H-1,2,3-triazole-4-carboxamide], under setting [1], the Dmax stood at 96%. The DC50 under setting [2] worked out at 2 nM.
The like results for `O=C1CCN(c2ccc(N3CC[C@@H](C(=O)N4CCN([C@H]5CC[C@H](n6cc(NC(=O)c7coc(-c8ccnc(NCC9CC9)c8)n7)c(C(F)F)n6)CC5)CC4)C3)cc2)C(=O)N1` [Example 23, 2-(2-((cyclopropylmethyl)amino)pyridin-4-yl)-N-(3-(difluoromethyl)-1-((1R,4r)-4-(4-((R)-1-(4-(2,4-dioxotetrahydropyrimidin-1(2H)-yl)phenyl)pyrrolidine-3-carbonyl)piperazin-1-yl)cyclohexyl)-1H-pyrazol-4-yl)oxazole-4-carboxamide] were, in that order, 95% and 6 nM.
Consider `CC(C)(O)c1cc2nn([C@H]3C[C@H](N4CCN(C5CN(c6cc(F)c([C@H]7CCC(=O)NC7=O)c(F)c6)C5)CC4)C3)cc2cc1NC(=O)c1ccc2cc(C#N)cnn12` [Example 331, 3-cyano-N-(2-((1R,3r)-3-(4-(1-(4-((R)-2,6-dioxopiperidin-3-yl)-3,5-difluorophenyl)azetidin-3-yl)piperazin-1-yl)cyclobutyl)-6-(2-hydroxypropan-2-yl)-2H-indazol-5-yl)pyrrolo[1,2-b]pyridazine-7-carboxamide], for which the greatest degradation seen (Dmax) under setting [1] is 92%. The DC50 under setting [2] came out at 3.7 nM.
As to `CC(C)(O)c1cc2nn([C@H]3CC[C@H](N4CCN(CCc5cc(F)c([C@H]6CCC(=O)NC6=O)c(F)c5)CC4)CC3)cc2cc1NC(=O)c1ccn2cc(C#N)cnc12` [Example 413, 3-cyano-N-(2-((1R,4r)-4-(4-(4-((R)-2,6-dioxopiperidin-3-yl)-3,5-difluorophenethyl)piperazin-1-yl)cyclohexyl)-6-(2-hydroxypropan-2-yl)-2H-indazol-5-yl)pyrrolo[1,2-a]pyrimidine-8-carboxamide], under setting [1], the Dmax was 25%. The DC50 under setting [2] was greater than 1000 nM.
The like results for `COc1cc2nn(C3CCN(C4CCN(C(=O)C5CN(c6ccc(N7CCC(=O)NC7=O)cc6)C5)CC4)CC3)cc2cc1NC(=O)c1cccc(C(F)(F)F)n1` [Example 44, N-(2-(1′-(1-(4-(2,4-dioxotetrahydropyrimidin-1(2H)-yl)phenyl)azetidine-3-carbonyl)-[1,4′-bipiperidin]-4-yl)-6-methoxy-2H-indazol-5-yl)-6-(trifluoromethyl)picolinamide] were, in that order, 99% and 9.3 nM.
Regarding `CC(C)c1cc(-c2nc(C(=O)Nc3cn([C@H]4CC[C@H](N5CCN(C(=O)C6CN(c7cc(F)c([C@H]8CCC(=O)NC8=O)c(F)c7)C6)CC5)CC4)nc3C(F)F)co2)ccn1` [Example 86, N-(3-(difluoromethyl)-1-((1r,4r)-4-(4-(1-(4-((R)-2,6-dioxopiperidin-3-yl)-3,5-difluorophenyl)azetidine-3-carbonyl)piperazin-1-yl)cyclohexyl)-1H-pyrazol-4-yl)-2-(2-isopropylpyridin-4-yl)oxazole-4-carboxamide], the Dmax under setting [1] was determined as 94%. Besides, under setting [2], the DC50 was 8.9 nM.
In the case of `CC(C)(O)c1cc2nn([C@H]3CC[C@H](N4CCN(C(=O)C5CN(c6ccc(N7CCC(=O)NC7=O)cc6)C5)CC4)CC3)cc2cc1NC(=O)c1cccc(C(F)(F)F)n1` [Example 40, N-(2-((1r,4r)-4-(4-(1-(4-(2,4-dioxotetrahydropyrimidin-1(2H)-yl)phenyl)azetidine-3-carbonyl)piperazin-1-yl)cyclohexyl)-6-(2-hydroxypropan-2-yl)-2H-indazol-5-yl)-6-(trifluoromethyl)picolinamide], the Dmax by setting is: (5 h treatment, read-out: IRAK4 in Karpas-299 (5 h) Dmax (%)) 89%; under setting [1], 99%. The DC50 (5 h treatment, read-out: IRAK4 in Karpas-299 (5 h) DC50) worked out at 23 nM and the DC50 under setting [2] was 0.9 nM.
With `COc1cc2nn(C3CCN(C4CCN(C(=O)[C@@H]5CCN(c6cc(F)c([C@H]7CCC(=O)NC7=O)c(F)c6)C5)CC4)CC3)cc2cc1NC(=O)c1cccc(C(F)(F)F)n1` [Example 43, N-(2-(1′-((R)-1-(4-((R)-2,6-dioxopiperidin-3-yl)-3,5-difluorophenyl)pyrrolidine-3-carbonyl)-[1,4′-bipiperidin]-4-yl)-6-methoxy-2H-indazol-5-yl)-6-(trifluoromethyl)picolinamide], the Dmax under setting [1] amounted to 95%. Besides, the DC50 under setting [2] stood at 7.7 nM.
